{
  "source": "ChEMBL document CHEMBL1201862",
  "about": "“PubChem BioAssay data set” (2004)",
  "key": {"[1]": {"molecular_target": "T1, Sentrin-specific protease 8 (Homo sapiens, UniProt Q96LD8)", "T1 sequence (Q96LD8 whole entry)": "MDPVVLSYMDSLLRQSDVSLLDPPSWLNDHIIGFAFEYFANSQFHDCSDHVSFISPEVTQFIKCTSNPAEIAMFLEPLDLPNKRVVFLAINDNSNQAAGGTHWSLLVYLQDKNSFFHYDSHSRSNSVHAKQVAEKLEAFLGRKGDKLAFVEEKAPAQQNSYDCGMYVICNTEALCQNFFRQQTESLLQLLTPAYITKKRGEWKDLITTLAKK", "type": "functional"}, "Nonstructural protein 1": {"molecular_target": "Nonstructural protein 1 (Influenza A virus, UniProt Q194T2)", "sequence (Q194T2 whole entry)": "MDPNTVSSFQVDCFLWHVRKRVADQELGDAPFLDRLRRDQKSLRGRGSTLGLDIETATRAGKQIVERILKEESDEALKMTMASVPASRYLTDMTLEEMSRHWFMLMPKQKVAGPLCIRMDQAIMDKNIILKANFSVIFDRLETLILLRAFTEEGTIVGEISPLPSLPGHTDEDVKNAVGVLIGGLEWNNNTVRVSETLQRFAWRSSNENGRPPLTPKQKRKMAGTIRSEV", "type": "functional, Influenza A virus (A/California/07/2009(H1N1))"}, "[2]": {"molecular_target": "T1, Sentrin-specific protease 8", "type": "functional", "remark": "listed apart in the source"}, "[3]": {"molecular_target": "T2, Long-chain-fatty-acid--AMP ligase FadD28 (Mycobacterium tuberculosis, UniProt P9WQ59)", "T2 sequence (P9WQ59 whole entry)": "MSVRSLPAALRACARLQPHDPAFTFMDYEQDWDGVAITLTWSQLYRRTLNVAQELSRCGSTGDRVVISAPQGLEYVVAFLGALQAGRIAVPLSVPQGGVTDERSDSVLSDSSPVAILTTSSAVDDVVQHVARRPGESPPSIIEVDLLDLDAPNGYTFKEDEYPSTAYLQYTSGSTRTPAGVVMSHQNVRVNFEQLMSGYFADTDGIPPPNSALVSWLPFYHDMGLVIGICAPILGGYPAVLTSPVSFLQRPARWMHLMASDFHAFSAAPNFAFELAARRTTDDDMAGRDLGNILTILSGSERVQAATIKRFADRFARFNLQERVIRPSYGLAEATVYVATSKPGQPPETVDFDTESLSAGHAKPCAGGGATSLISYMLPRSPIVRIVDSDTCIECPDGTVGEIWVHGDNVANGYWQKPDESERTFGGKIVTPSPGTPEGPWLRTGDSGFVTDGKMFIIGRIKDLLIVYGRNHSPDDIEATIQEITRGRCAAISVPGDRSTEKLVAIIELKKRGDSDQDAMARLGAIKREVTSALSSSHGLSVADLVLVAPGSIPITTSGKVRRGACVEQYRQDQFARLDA", "assay": "Fluorescence polarization aasay to screen for inhibitors that compete for the binding of FadD28 to a bisubstrate Measured in Biochemical System Using Plate Reader - 2147-01_Inhibitor_Dose_CherryPick_Activity.", "type": "functional, Mycobacterium tuberculosis H37Rv"}, "[4]": {"assay": "HeLa cell cytotoxicity, dose response, cytotoxicity control for MgcRacGAP inhibitor project (AID 624300)", "type": "functional"}, "[5]": {"molecular_target": "T3, Rac GTPase-activating protein 1 (Homo sapiens, UniProt Q9H0H5)", "T3 sequence (Q9H0H5 whole entry)": "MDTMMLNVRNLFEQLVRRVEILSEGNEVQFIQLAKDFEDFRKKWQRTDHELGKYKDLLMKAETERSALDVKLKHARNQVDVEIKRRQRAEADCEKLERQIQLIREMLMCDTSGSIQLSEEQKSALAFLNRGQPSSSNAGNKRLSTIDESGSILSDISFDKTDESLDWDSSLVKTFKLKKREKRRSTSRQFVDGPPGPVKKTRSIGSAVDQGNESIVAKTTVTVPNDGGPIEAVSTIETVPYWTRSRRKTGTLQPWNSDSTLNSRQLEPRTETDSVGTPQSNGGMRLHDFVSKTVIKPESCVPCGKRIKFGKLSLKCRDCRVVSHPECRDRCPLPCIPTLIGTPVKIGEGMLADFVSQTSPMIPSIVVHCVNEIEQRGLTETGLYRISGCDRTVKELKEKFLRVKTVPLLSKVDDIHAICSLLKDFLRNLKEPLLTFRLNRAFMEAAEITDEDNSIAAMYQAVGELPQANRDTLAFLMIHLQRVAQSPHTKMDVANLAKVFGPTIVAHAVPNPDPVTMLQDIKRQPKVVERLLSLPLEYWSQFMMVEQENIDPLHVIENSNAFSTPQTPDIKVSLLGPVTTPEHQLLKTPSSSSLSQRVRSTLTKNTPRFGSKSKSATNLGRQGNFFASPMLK", "assay": "MgcRacGAP GTPase-activating activity inhibitors, confirmation, biochemical, ADP Hunter fluorescence, primary and confirmatory (AID 624330)", "type": "functional"}, "[6]": {"molecular_target": "T4, Corticotropin-releasing factor receptor 2/Corticotropin-releasing factor-binding protein (Homo sapiens, UniProt P24387+Q13324)", "T4 sequence (Q13324 whole entry)": "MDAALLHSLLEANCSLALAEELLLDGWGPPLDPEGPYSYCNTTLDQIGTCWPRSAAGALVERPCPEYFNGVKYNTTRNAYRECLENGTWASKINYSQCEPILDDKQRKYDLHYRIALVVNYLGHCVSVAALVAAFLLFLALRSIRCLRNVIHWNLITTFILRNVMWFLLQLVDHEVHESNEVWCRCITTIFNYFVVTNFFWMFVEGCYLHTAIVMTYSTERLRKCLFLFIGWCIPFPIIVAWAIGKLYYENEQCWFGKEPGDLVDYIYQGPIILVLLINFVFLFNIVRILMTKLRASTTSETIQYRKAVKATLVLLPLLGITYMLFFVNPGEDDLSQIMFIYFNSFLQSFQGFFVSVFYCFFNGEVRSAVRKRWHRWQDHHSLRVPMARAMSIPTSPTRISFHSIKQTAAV", "T4 sequence (P24387 whole entry)": "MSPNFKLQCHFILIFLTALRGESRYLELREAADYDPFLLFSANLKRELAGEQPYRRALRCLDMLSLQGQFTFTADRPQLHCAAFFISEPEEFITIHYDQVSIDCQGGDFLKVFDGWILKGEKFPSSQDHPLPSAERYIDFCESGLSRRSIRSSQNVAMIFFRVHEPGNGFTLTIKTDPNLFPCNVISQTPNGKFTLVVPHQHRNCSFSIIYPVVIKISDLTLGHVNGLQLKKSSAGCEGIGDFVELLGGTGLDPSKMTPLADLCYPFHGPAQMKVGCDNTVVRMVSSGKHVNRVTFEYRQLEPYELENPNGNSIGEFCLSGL", "assay": "activators of CRF receptor 2 with binding protein – uHTS hits, confirmation (AID 602473)", "type": "functional", "conditions": "read-out: EC50_Mean"}, "[7]": {"molecular_target": "T5, Heat shock factor protein 1 (Mus musculus, UniProt P38532)", "T5 sequence (P38532 whole entry)": "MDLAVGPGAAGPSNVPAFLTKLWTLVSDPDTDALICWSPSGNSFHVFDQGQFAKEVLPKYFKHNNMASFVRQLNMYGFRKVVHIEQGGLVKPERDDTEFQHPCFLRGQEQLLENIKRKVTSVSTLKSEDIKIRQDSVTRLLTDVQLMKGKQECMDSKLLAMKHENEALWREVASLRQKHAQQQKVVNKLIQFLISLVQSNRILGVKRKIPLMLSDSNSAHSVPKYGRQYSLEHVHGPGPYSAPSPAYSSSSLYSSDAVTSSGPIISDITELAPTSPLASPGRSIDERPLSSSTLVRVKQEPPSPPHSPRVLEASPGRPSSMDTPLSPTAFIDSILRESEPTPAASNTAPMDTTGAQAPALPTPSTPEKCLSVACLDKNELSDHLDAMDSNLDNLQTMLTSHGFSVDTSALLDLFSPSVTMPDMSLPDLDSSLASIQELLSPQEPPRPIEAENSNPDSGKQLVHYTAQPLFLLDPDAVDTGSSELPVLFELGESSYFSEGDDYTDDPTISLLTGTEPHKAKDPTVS", "assay": "HSF1 potentiators in luciferase reporter cells, confirmation, cell-based, NIH3T3, luminescence, dose retest (AID 435004);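 further: stress induced by proteasome inhibitor MG132 added 30 min after compound; actives raise luminescence as potentiators of the MG132 stress response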", "type": "functional"}, "[8]": {"molecular_target": "T4, Corticotropin-releasing factor receptor 2/Corticotropin-releasing factor-binding protein", "assay": "Dose Response confirmation of uHTS hits for small molecule antagonists of the CRF-binding protein and CRF-R2 receptor complex.", "type": "functional", "conditions": "read-out: IC50_Mean"}},
  "note": "The source made the active and inactive calls.",
  "data": [
    {"smiles": "Cc1n[nH]c(O)c1C(c1c(C)n[nH]c1O)c1cn(Cc2ccc(F)cc2)c2ccccc12", "values": [
      {"measurement": "IC50", "setting": "[1]", "value": "5.81 µM (active)"},
      {"measurement": "IC50", "setting": "Nonstructural protein 1", "value": "47.2 µM (active)"},
      {"measurement": "IC50", "setting": "[2]", "value": "6.07 µM (active)"}
    ]},
    {"smiles": "CN(C)S(=O)(=O)c1cccc(C(=O)OCC(=O)Nc2sccc2C#N)c1", "values": [
      {"measurement": "AC50", "setting": "[3]", "value": "> 100 µM (inactive)"}
    ]},
    {"smiles": "CCc1ccc(O)c(/N=C/c2ccccc2O)c1", "values": [
      {"measurement": "CC50", "setting": "[4]", "value": "100 µM (active)"},
      {"measurement": "IC50", "setting": "[5]", "value": "36.9 µM (active)"}
    ]},
    {"smiles": "CN1c2ccccc2C(O)=C(C(S)=Nc2ccc(Cl)cc2)S1(=O)=O", "values": [
      {"measurement": "EC50", "setting": "[6]", "value": "> 53 µM (inactive)"},
      {"measurement": "EC50", "setting": "[7]", "value": "> 260 µM (inconclusive)"},
      {"measurement": "IC50", "setting": "[8]", "value": "24.7 µM (active)"},
      {"measurement": "AC50", "setting": "[3]", "value": "> 100 µM (inactive)"}
    ]},
    {"smiles": "O=Cc1ccc(N2N=C(c3ccccc3)CC2c2ccccc2)cc1", "note": "(stereo unspecified)", "values": [
      {"measurement": "AC50", "setting": "[3]", "value": "26.5 µM (active)"}
    ]}
  ]
}
